Tests used:
[1] = Pharmacokinetic studies of compounds in mice; type: in vivo; conditions: male mice, intragastric administration 10 mg/kg, plasma
Protocol: Activity Assay Example 3: Pharmacokinetic Studies of Compounds in Mice
In this test, 3 male mice were selected and divided into 1 group, 3 mice/group. All animals were fasted overnight before administration.
The intragastric administration dose was 10 mg/kg, and the administration volume was 10 mL/kg.
2.2 Preparation of Drug Solution
According to the animal body weight combined with the administration dose, the amount of the required drug solution was calculated. An appropriate amount of the test substance was weighed, added with 5% of the final volume of ethanol for dissolution, then added with 5% of the final volume of SolutolHS15, and finally added with PBS to the final volume, and mixed by vortex and fully dissolved to obtain a solution for intragastric administration (1 mg/mL). All solutions were prepared for immediate use.
2.3 Method of Administration
Before administration, the drug solution was placed on a magnetic stirrer in the animal laboratory and stirred for at least 10 min. During the administration process, vortex was continued to ensure uniformity of the drug solution. The theoretical volume of gavage administration was 10 mL/kg, which was administered with a syringe equipped with a gavage needle.
Before administration, the animals were weighed and the body weight of the animals involved in the experiment was recorded, and the administration volume of each animal was calculated according to the body weight. After administration, animals were promptly transferred back to the experimental cages to collect samples.
2.4 Observation of Animal Status
After administration, whether animals had abnormal reactions was observed immediately. If there were no abnormal reactions, animals were observed twice a day during the experiment. If abnormal reactions were found, they should be recorded in time, and the number of observations should be increased until the animals returned to normal or to the end of the experiment.
2.5 Sample Collection and Preservation
All experimental animals were fasted overnight before administration, and blood was collected at corresponding time points into blood collection tubes containing heparin sodium anticoagulant. After the whole blood was collected, the blood collection tube was gently shaken and placed on ice immediately, and then centrifuged (4° C., 4000 rpm, 10 min) to collect supernatant plasma samples, which were stored in a refrigerator at −80° C. before analysis.
2.6 Plasma Sample Processing and Analysis
The collected plasma samples were handed over to the Pharmacokinetic department for sample extraction, and the test substances in the plasma were extracted by protein precipitation method using organic reagents containing internal standards (acetonitrile:plasma=4:1, v/v). The extracted processed samples were submitted for quantitative concentration analysis by LC-MS/MS. According to the plasma concentration of each animal obtained by the analysis, software Kinetica (version 5.0) was used to calculate the main pharmacokinetic parameter eAUC30-120 according to the non-compartment model to evaluate the exposure amount; the test results are shown in Table 2: […]

AR = biological target: T1, AR (Homo sapiens, UniProt P10275, T878A); experiment: Effects of compounds on AR expression in LNCaP cells (ELISA, DC50); type: cell-based; set-up: Measurement of the Effects of Drugs on the Expression of AR in Cells by ELISA Method; endogenous in cells; host or cells: LNCaP; conditions: 24 hours of drug treatment, AR by ELISA
T1 sequence (P10275 1-920 T878A): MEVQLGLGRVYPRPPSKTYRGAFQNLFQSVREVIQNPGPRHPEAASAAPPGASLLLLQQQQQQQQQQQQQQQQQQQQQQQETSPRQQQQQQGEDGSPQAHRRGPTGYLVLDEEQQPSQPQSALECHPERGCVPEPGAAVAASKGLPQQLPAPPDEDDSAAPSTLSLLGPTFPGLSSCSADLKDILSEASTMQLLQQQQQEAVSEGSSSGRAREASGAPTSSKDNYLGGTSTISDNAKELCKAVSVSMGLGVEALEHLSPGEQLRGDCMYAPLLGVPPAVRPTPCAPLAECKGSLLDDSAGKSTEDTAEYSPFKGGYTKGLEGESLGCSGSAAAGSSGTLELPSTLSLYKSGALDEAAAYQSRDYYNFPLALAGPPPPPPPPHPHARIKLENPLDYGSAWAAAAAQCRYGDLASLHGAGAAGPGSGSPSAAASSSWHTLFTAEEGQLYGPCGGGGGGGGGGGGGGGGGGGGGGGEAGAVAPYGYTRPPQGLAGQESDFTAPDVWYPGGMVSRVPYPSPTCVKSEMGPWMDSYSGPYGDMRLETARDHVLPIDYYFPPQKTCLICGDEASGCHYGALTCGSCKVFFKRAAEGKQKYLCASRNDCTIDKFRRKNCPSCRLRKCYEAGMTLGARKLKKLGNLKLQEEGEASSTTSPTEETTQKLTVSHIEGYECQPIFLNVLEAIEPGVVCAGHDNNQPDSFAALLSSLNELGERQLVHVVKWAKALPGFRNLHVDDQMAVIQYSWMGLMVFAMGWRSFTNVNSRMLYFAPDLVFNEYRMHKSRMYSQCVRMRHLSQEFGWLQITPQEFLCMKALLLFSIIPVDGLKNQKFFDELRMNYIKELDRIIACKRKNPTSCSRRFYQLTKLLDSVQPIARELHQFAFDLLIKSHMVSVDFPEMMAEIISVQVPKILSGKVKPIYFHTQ
Outline: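 LNCaP cells at about 15,000/well were treated for 24 h with compound at 0.0001–2 μmol/L final. AR in cell lysates was measured by ELISA (OD450). Inhibition was relative to DMSO control after blank subtraction, and DC50 was calculated from it.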

Structure (SMILES)	eAUC0.5-2 h [1]	DC50 (AR)
Cc1ncsc1-c1ccc(CNC(=O)[C@@H]2C[C@@H](O)CN2C(=O)[C@@H](NC(=O)COCCOc2ccc(-c3ccc(N4C(=S)N(c5ccc(C#N)c(C(F)(F)F)c5F)C(=O)C4(C)C)cn3)cc2)C(C)(C)C)cc1 [Compound A71]	287 ± 135 ng·h/mL	62.1 nM
Cc1ncsc1-c1ccc([C@H](C)NC(=O)[C@@H]2C[C@@H](O)CN2C(=O)[C@@H](NC(=O)COCCCCOc2ccc(-c3ccc(N4C(=S)N(c5ccc(C#N)c(C(F)(F)F)c5F)C(=O)C4(C)C)cn3)cn2)C(C)(C)C)cc1 [Compound A126]	1110 ± 158 ng·h/mL	55 nM
Cc1ncsc1-c1ccc(CNC(=O)[C@@H]2C[C@@H](O)CN2C(=O)[C@@H](NC(=O)COCCCCCOc2ccc(-c3ccc(N4C(=S)N(c5ccc(C#N)c(C(F)(F)F)c5F)C(=O)C4(C)C)cn3)cc2)C(C)(C)C)cc1 [Compound A73]	189 ± 108 ng·h/mL	49.3 nM
Cc1ncsc1-c1ccc(CNC(=O)[C@@H]2C[C@@H](O)CN2C(=O)[C@@H](NC(=O)COCCCCOc2ccc(-c3ncc(N4C(=S)N(c5ccc(C#N)c(C(F)(F)F)c5F)C(=O)C4(C)C)cc3C(F)(F)F)c(F)c2)C(C)(C)C)cc1 [Compound A95]	1234 ± 430 ng·h/mL	106 nM
Cc1ncsc1-c1ccc(CNC(=O)[C@@H]2C[C@@H](O)CN2C(=O)[C@@H](NC(=O)COCCCCOc2ccc(-c3ncc(N4C(=S)N(c5ccc(C#N)c(C(F)(F)F)c5F)C(=O)C4(C)C)cc3F)cc2)C(C)(C)C)cc1 [Compound A63]	373 ± 242 ng·h/mL	37.9 nM
Cc1ncsc1-c1ccc(CNC(=O)[C@@H]2C[C@@H](O)CN2C(=O)[C@@H](NC(=O)Cc2ccc(C(=O)Nc3ccc(-c4ncc(N5C(=S)N(c6ccc(C#N)c(C(F)(F)F)c6F)C(=O)C5(C)C)cc4F)c(C(F)(F)F)c3)cc2)C(C)(C)C)cc1 [Compound A256]	–	119 nM
Cc1ncsc1-c1ccc(CNC(=O)[C@@H]2C[C@@H](O)CN2C(=O)[C@@H](NC(=O)CCc2ccc(C(=O)Nc3ccc(-c4ccc(N5C(=S)N(c6ccc(C#N)c(C(F)(F)F)c6F)C(=O)C5(C)C)cn4)cc3)cc2)C(C)(C)C)cc1 [Compound A252]	–	95.9 nM
COc1c(C#N)ccc(N2C(=O)C(C)(C)N(c3cnc(-c4ccc(OC5CCN(C(=O)COc6cccc7c6C(=O)N(C6CCC(=O)NC6=O)C7=O)CC5)cc4F)c(F)c3)C2=S)c1F (centres unmarked) [Compound A195]	–	404 nM
CNC(=O)c1ccc(-c2c[nH]c([C@@H]3C[C@@H](O)CN3C(=O)[C@@H](NC(=O)COCCCCOc3ccc(-c4ncc(N5C(=S)N(c6ccc(C#N)c(C(F)(F)F)c6F)C(=O)C5(C)C)cc4F)c(C(F)(F)F)c3)C(C)(C)C)n2)cc1 [Compound A235]	–	125 nM
Cc1ncsc1-c1ccc(CNC(=O)[C@@H]2C[C@@H](O)CN2C(=O)[C@@H](NC(=O)COCC(F)CCOc2ccc(-c3ncc(N4C(=S)N(c5ccc(C#N)c(C(F)(F)F)c5F)C(=O)C4(C)C)cc3F)c(C(F)(F)F)c2)C(C)(C)C)cc1 (some centres unmarked) [Compound A166]	–	144 nM
CC(C)(C)[C@H](NC(=O)COCCCCOc1ccc(-c2ccc(N3C(=S)N(c4ccc(C#N)c(C(F)(F)F)c4F)C(=O)C3(C)C)cn2)cn1)C(=O)N1C[C@H](O)C[C@H]1C(=O)NCc1ccc(C(N)=O)cc1 [Compound A127]	–	89.3 nM
Cn1cncc1-c1c[nH]c([C@@H]2C[C@@H](O)CN2C(=O)[C@@H](NC(=O)COCCCCOc2ccc(-c3ncc(N4C(=S)N(c5ccc(C#N)c(C(F)(F)F)c5F)C(=O)C4(C)C)cc3F)c(C(F)(F)F)c2)C(C)(C)C)n1 [Compound A233]	–	194 nM
Cc1ncsc1-c1ccc(CNC(=O)[C@@H]2C[C@@H](O)CN2C(=O)[C@@H](NC(=O)COCC(F)(F)CCOc2ccc(-c3ncc(N4C(=S)N(c5ccc(C#N)c(C(F)(F)F)c5F)C(=O)C4(C)C)cc3F)c(C(F)(F)F)c2)C(C)(C)C)cc1 [Compound A168]	–	159 nM
CC(C)(C)[C@H](NC(=O)COCCCCOc1ccc(-c2ccc(N3C(=S)N(c4ccc(C#N)c(C(F)(F)F)c4F)C(=O)C3(C)C)cn2)cc1)C(=O)N1C[C@H](O)C[C@H]1c1nc(-c2cncnc2)c[nH]1 [Compound A228]	–	107 nM
Cc1cc(C(C(=O)N2C[C@H](O)C[C@H]2C(=O)N[C@@H](CC(=O)NCCCOc2ccc(-c3ncc(N4C(=S)N(c5ccc(C#N)c(C(F)(F)F)c5F)C(=O)C4(C)C)cc3F)cc2F)c2ccc(-c3scnc3C)cc2)C(C)C)on1 (some centres unmarked) [Compound A172]	–	170 nM
Cc1ncsc1-c1ccc(CNC(=O)[C@@H]2C[C@@H](O)CN2C(=O)[C@@H](NC(=O)Cc2ccc(C(=O)Nc3ccc(-c4ccc(N5C(=S)N(c6ccc(C#N)c(C(F)(F)F)c6F)C(=O)C5(C)C)cn4)cc3)cc2)C(C)(C)C)cc1 [Compound A240]	–	264 nM
COc1c(C#N)ccc(N2C(=O)C(C)(C)N(c3cnc(-c4ccc(OCCNC(=O)COc5ccc6c(c5)C(=O)N(C5CCC(=O)NC5=O)C6=O)c(F)c4)c(F)c3)C2=S)c1F (centres unmarked) [Compound A197]	–	435 nM
Cc1ncsc1-c1ccc(CNC(=O)[C@@H]2C[C@@H](O)CN2C(=O)[C@@H](NC(=O)COCC(F)CCOc2ccc(-c3ncc(N4C(=S)N(c5ccc(C#N)c(C(F)(F)F)c5F)C(=O)C4(C)C)cc3F)cc2F)C(C)(C)C)cc1 (some centres unmarked) [Compound A159]	–	168 nM
CC(C)(C)[C@H](NC(=O)COCCCCOc1ccc(-c2ccc(N3C(=S)N(c4ccc(C#N)c(C(F)(F)F)c4F)C(=O)C3(C)C)cn2)cn1)C(=O)N1C[C@H](O)C[C@H]1C(=O)NCc1ccccc1 [Compound A128]	–	124 nM
Cc1cc(C(C(=O)N2C[C@H](O)C[C@H]2C(=O)N[C@@H](CC(=O)N2CCC(Oc3ccc(-c4ncc(N5C(=S)N(c6ccc(C#N)c(C(F)(F)F)c6F)C(=O)C5(C)C)cc4F)c(C(F)(F)F)c3)CC2)c2ccc(-c3scnc3C)cc2)C(C)C)on1 (some centres unmarked) [Compound A183]	–	151 nM
Cc1ncsc1-c1ccc(CNC(=O)[C@@H]2C[C@@H](O)CN2C(=O)[C@@H](NC(=O)COCCCCN2CCN(c3ccc(N4C(=S)N(c5ccc(C#N)c(C(F)(F)F)c5F)C(=O)C4(C)C)cn3)CC2)C(C)(C)C)cc1 [Compound A106]	–	402 nM
Cc1ncsc1-c1ccc(CNC(=O)[C@@H]2C[C@@H](O)CN2C(=O)[C@@H](NC(=O)CCCCCC#Cc2ncc(N3C(=S)N(c4ccc(C#N)c(C(F)(F)F)c4F)C(=O)C3(C)C)cc2F)C(C)(C)C)cc1 [Compound A125]	–	> 2000 nM
Cc1ncsc1-c1ccc(CNC(=O)[C@@H]2C[C@@H](O)CN2C(=O)[C@@H](NC(=O)c2ccc(CNC(=O)c3ccc(-c4ccc(N5C(=S)N(c6ccc(C#N)c(C(F)(F)F)c6F)C(=O)C5(C)C)cn4)cc3)cc2)C(C)(C)C)cc1 [Compound A60]	–	82.9 nM
CC1(C)C(=O)N(c2ccc(C#N)c(C(F)(F)F)c2F)C(=S)N1c1ccc(-c2ccc(OCCNC(=O)COc3ccc4c(c3)C(=O)N(C3CCC(=O)NC3=O)C4=O)cc2)nc1 (centres unmarked) [Compound A38]	–	58.6 nM

From US12606552B2, “Bifunctional compound, preparation method therefor, and use thereof” (SUZHOU KINTOR PHARMACEUTICALS, INC., priority 2020, dated 2026)
